Assay results published in patent publication US5571804A, “Cephalosporin antibiotics” (priority 1993, dated 1996).

Experiments:
E. coli 851E = assay: MIC, two-fold agar dilution; type: cell-based; conditions: Muller-Hinton agar, 37° C., 20 hours
[1] = tested on: Staphylococcus aureus giorgio; assay: MIC, two-fold agar dilution; type: cell-based; conditions: Muller-Hinton agar, 37° C., 20 hours
E. coli 3190Y = assay: MIC, two-fold agar dilution; type: cell-based; conditions: Muller-Hinton agar, 37° C., 20 hours
[2] = tested on: Salmonella typhimurium 14028A; assay: MIC, two-fold agar dilution; type: cell-based; conditions: Muller-Hinton agar, 37° C., 20 hours
[3] = tested on: Citrobacter diversus 2046E; assay: MIC, two-fold agar dilution; type: cell-based; conditions: Muller-Hinton agar, 37° C., 20 hours
[4] = tested on: Pseudomonas aeruginosa 1912E; assay: MIC, two-fold agar dilution; type: cell-based; conditions: Muller-Hinton agar, 37° C., 20 hours
[5] = tested on: Enterobacter cloacae IND + VE 1194E; assay: MIC, two-fold agar dilution; type: cell-based; conditions: Muller-Hinton agar, 37° C., 20 hours
[6] = pharmakinetic variables in SD rats; conditions: rat, in vivo, iv, 20 mg/kg
Procedure: The pharmakinetic variables were determined using SD rats (.male.) of a body weight of 230±10g as follows. The "S" compound of each of the Examples was injected to femoral vein of 4-5 rats by 20mg/Kg and then blood was collected from femoral artery in 1, 2.5, 5, 10, 20, 40, 60 and 120 min.

[7] = tested on: Pseudomonas aeruginosa 6065; assay: MIC, two-fold agar dilution; type: cell-based; conditions: Muller-Hinton agar, 37° C., 20 hours
E. coli TEM3 3455E = assay: MIC, two-fold agar dilution; type: cell-based; conditions: Muller-Hinton agar, 37° C., 20 hours
Proteus vularis 6059A = assay: MIC, two-fold agar dilution; type: cell-based; conditions: Muller-Hinton agar, 37° C., 20 hours
[8] = tested on: Staphylococcus aureus 241; assay: MIC, two-fold agar dilution; type: cell-based; conditions: Muller-Hinton agar, 37° C., 20 hours
Staphylococcus aureus 77 = assay: MIC, two-fold agar dilution; type: cell-based; conditions: Muller-Hinton agar, 37° C., 20 hours
[9] = tested on: Klebsiella aerogenes SHV-1 1976E; assay: MIC, two-fold agar dilution; type: cell-based; conditions: Muller-Hinton agar, 37° C., 20 hours
E. coli TEM7 3457E = assay: MIC, two-fold agar dilution; type: cell-based; conditions: Muller-Hinton agar, 37° C., 20 hours
Enterobacter cloacae P99 = assay: MIC, two-fold agar dilution; type: cell-based; conditions: Muller-Hinton agar, 37° C., 20 hours
E. coli 10536 = assay: MIC, two-fold agar dilution; type: cell-based; conditions: Muller-Hinton agar, 37° C., 20 hours
[10] = tested on: Serratia marcescens 1826E; assay: MIC, two-fold agar dilution; type: cell-based; conditions: Muller-Hinton agar, 37° C., 20 hours
E. coli TEM9 2639E = assay: MIC, two-fold agar dilution; type: cell-based; conditions: Muller-Hinton agar, 37° C., 20 hours
[11] = tested on: Pseudomonas aeruginosa 10145; assay: MIC, two-fold agar dilution; type: cell-based; conditions: Muller-Hinton agar, 37° C., 20 hours
[12] = tested on: Staphylococcus epidermidis 887E; assay: MIC, two-fold agar dilution; type: cell-based; conditions: Muller-Hinton agar, 37° C., 20 hours
[13] = tested on: Acinetobacter calcoaceticus 15473A; assay: MIC, two-fold agar dilution; type: cell-based; conditions: Muller-Hinton agar, 37° C., 20 hours
E. coli TEM1 1193E = assay: MIC, two-fold agar dilution; type: cell-based; conditions: Muller-Hinton agar, 37° C., 20 hours
[14] = tested on: Staphylococcus aureus 6538P; assay: MIC, two-fold agar dilution; type: cell-based; conditions: Muller-Hinton agar, 37° C., 20 hours
[15] = tested on: Streptococcus laecalis 29212A; assay: MIC, two-fold agar dilution; type: cell-based; conditions: Muller-Hinton agar, 37° C., 20 hours
E. coli TEM5 3739E = assay: MIC, two-fold agar dilution; type: cell-based; conditions: Muller-Hinton agar, 37° C., 20 hours
[16] = tested on: Klebsiella aerogenes K1 + 1082E; assay: MIC, two-fold agar dilution; type: cell-based; conditions: Muller-Hinton agar, 37° C., 20 hours

Compound	minimal inhibitory concentration (MIC) (E. coli 851E)	minimal inhibitory concentration (MIC) [1]	minimal inhibitory concentration (MIC) (E. coli 3190Y)	minimal inhibitory concentration (MIC) [2]	minimal inhibitory concentration (MIC) [3]	minimal inhibitory concentration (MIC) [4]	minimal inhibitory concentration (MIC) [5]	minimal inhibitory concentration (MIC) [7]	minimal inhibitory concentration (MIC) (E. coli TEM3 3455E)	minimal inhibitory concentration (MIC) (Proteus vularis 6059A)	minimal inhibitory concentration (MIC) [8]	minimal inhibitory concentration (MIC) (Staphylococcus aureus 77)	minimal inhibitory concentration (MIC) (E. coli 10536)	minimal inhibitory concentration (MIC) [10]	minimal inhibitory concentration (MIC) [11]	minimal inhibitory concentration (MIC) [12]	minimal inhibitory concentration (MIC) [13]	minimal inhibitory concentration (MIC) [14]	minimal inhibitory concentration (MIC) [15]	minimal inhibitory concentration (MIC) [16]	also measured
Nc1nc(/C(=N/O[C@H](C(=O)O)c2ccc(O)c(O)c2)C(=O)N[C@@H]2C(=O)N3C(C(=O)O)=C(CSc4nc(N)c(N)c(N)n4)CS[C@H]23)cs1 [Compound I-5S, 7-[(Z)-2-(aminothiazol-4-yl)-2-(α-carboxy-3,4-dihydroxybenzyloxyimino)acetamido]-3-(4,5,6-triaminopyrimidine-2-yl)thiomethyl-3-cephem-4-carboxylate]	0.031	1	0.031	0.016	0.063	0.25	2	0.25	0.016	0.13	64	8	≤ 0.008	0.25	0.13	32	0.13	2	4	0.031	AUC at 2 h [6]: 59500 ng·h/mL; half-life [6]: 59 min; minimal inhibitory concentration (MIC) [9]: 0.13; minimal inhibitory concentration (MIC) (E. coli TEM7 3457E): ≤ 0.008; minimal inhibitory concentration (MIC) (Enterobacter cloacae P99): 8; minimal inhibitory concentration (MIC) (E. coli TEM9 2639E): 0.25; minimal inhibitory concentration (MIC) (E. coli TEM1 1193E): 0.031; minimal inhibitory concentration (MIC) (E. coli TEM5 3739E): 0.063
Nc1cc(SCC2=C(C(=O)O)N3C(=O)[C@@H](NC(=O)/C(=N\O[C@H](C(=O)O)c4ccc(O)c(O)c4)c4csc(N)n4)[C@H]3SC2)nc(N)n1 [Compound I-6S, 7-[(Z)-2-(aminothiazol-4-yl)-2-(α-carboxy-3,4-dihydroxybenzyloxyimino)acetamido]-3-(2,6-diamino-pyrimidine-4-yl)thiomethyl-3-cephem-4-carboxylate]	0.031	1	0.031	0.016	0.063		2	0.25	0.016	0.13	64	8	≤ 0.008	0.13	0.25	32	0.13	1	2	0.031	AUC at 2 h [6]: 59800 ng·h/mL; half-life [6]: 62 min; minimal inhibitory concentration (MIC) [9]: 0.13; minimal inhibitory concentration (MIC) (E. coli TEM7 3457E): ≤ 0.008; minimal inhibitory concentration (MIC) (Enterobacter cloacae P99): 8; minimal inhibitory concentration (MIC) (E. coli TEM9 2639E): 0.13; minimal inhibitory concentration (MIC) (E. coli TEM1 1193E): 0.031; minimal inhibitory concentration (MIC) (E. coli TEM5 3739E): 0.063
Nc1cc(SCC2=C(C(=O)O)N3C(=O)[C@@H](NC(=O)/C(=N\O[C@@H](C(=O)O)c4ccc(O)c(O)c4)c4csc(N)n4)[C@H]3SC2)ncn1 [Compound I-7R, 7[-(Z)-2-(aminothiazol-4-yl)-2-(α-carboxy-3,4-dihydroxybenzyloxyimino)acetamido]-3-(6-amino-pyrimidine-4-yl)thiomethyl-3cephem-4-carboxylate]	0.13	2	0.063	0.13	0.13	0.25	4	4	0.031	0.25	128	8	0.016	0.5	2	32	0.25	2	4	0.25	minimal inhibitory concentration (MIC) [9]: 0.25; minimal inhibitory concentration (MIC) (E. coli TEM7 3457E): 0.031; minimal inhibitory concentration (MIC) (Enterobacter cloacae P99): 8; minimal inhibitory concentration (MIC) (E. coli TEM9 2639E): 0.25; minimal inhibitory concentration (MIC) (E. coli TEM1 1193E): 0.13; minimal inhibitory concentration (MIC) (E. coli TEM5 3739E): 0.063
CC(C)(O/N=C(\C(=O)N[C@@H]1C(=O)N2C(C(=O)[O-])=C(C[n+]3ccccc3)CS[C@H]12)c1csc(N)n1)C(=O)O [Ceftazidime, reference compound]		4	0.063	0.25	0.5	1		16		0.063	> 128	32	0.13	0.25	2	> 128	2	16	> 128	0.25	AUC at 2 h [6]: 31100 ng·h/mL
Nc1cc(SCC2=C(C(=O)O)N3C(=O)[C@@H](NC(=O)/C(=N\O[C@@H](C(=O)O)c4ccc(O)c(O)c4)c4csc(N)n4)[C@H]3SC2)nc(N)n1 [Compound I-6R, 7-[(Z)-2-(aminothiazol-4-yl)-2-(α-carboxy-3,4-dihydroxybenzyloxyimino)acetamido]-3-(2,6-diamino-pyrimidine-4-yl)thiomethyl-3-cephem-4-carboxylate]	0.063	1	0.063	0.13	0.13	0.25	4	1	0.031	0.25	64	16	0.016	0.5	0.25	32	0.25	1	4	0.25	minimal inhibitory concentration (MIC) [9]: 0.25; minimal inhibitory concentration (MIC) (E. coli TEM7 3457E): 0.016; minimal inhibitory concentration (MIC) (Enterobacter cloacae P99): 8; minimal inhibitory concentration (MIC) (E. coli TEM9 2639E): 0.25; minimal inhibitory concentration (MIC) (E. coli TEM1 1193E): 0.063; minimal inhibitory concentration (MIC) (E. coli TEM5 3739E): 0.063
